# Literature values as cited in PMC11979273, “A phase I study to evaluate the safety, tolerability, and pharmacokinetics of HEC113995PA·H2O, a novel dual-acting serotonergic antidepressant, in healthy subjects” (Frontiers in Pharmacology, 2025).
# Conditions: cited from earlier work
smiles,measurement,setting,value
N#Cc1ccc2[nH]cc(CCCCN3CCN(c4ccc5oc(C(N)=O)cc5c4)CC3)c2c1 [Vilazodone],AUC0-∞,20 mg dose,502 ng·h/mL
same,Cmax,20 mg dose,28.5 ng/mL
same,Tmax (peak),in vivo,5 h
same,t1/2,in vivo,24.1 h
